{
  "source": "paper PMC6716157",
  "about": "(Journal of the American Chemical Society, 2019)",
  "key": {"MsMftD": {"target": "MsMftD (Mycolicibacterium smegmatis, UniProt A0QSB9)", "sequence (A0QSB9 whole entry)": "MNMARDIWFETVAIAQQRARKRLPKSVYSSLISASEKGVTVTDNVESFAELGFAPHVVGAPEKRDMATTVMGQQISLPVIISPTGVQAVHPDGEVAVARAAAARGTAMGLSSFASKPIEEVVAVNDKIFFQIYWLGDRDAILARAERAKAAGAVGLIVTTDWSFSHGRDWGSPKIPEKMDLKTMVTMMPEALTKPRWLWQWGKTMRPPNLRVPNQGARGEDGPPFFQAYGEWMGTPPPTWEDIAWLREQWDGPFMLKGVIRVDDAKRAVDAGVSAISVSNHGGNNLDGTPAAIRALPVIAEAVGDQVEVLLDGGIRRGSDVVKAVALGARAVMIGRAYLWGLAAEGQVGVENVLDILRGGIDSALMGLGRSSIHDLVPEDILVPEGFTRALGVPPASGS", "experiment": "HPLC of product, aerobic", "format": "biochemical", "settings": "oxidative deamination to PMFT"}, "MuMftD (MftD)": {"target": "T1, MuMftD (MftD) (Mycobacterium ulcerans, UniProt A0PM50)", "T1 sequence (A0PM50 1-390)": "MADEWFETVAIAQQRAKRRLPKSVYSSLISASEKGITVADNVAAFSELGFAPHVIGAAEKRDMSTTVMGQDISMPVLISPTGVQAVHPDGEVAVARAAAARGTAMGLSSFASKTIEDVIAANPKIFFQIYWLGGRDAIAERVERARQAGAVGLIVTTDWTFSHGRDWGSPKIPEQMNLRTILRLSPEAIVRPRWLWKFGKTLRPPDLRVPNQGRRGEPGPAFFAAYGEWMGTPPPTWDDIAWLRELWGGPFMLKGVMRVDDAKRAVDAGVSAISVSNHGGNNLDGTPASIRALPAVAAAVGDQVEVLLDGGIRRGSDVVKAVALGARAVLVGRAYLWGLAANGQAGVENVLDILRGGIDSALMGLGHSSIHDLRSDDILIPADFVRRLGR", "experiment": "HPLC of flavin released by heat from purified protein", "format": "binding", "settings": "copurified; bound reduced as isolated, released on oxidation"}, "[1]": {"target": "MsCDH (carveol dehydrogenase, Msmeg_1410) (Mycolicibacterium smegmatis, UniProt A0QSA5)", "sequence (A0QSA5 1-283)": "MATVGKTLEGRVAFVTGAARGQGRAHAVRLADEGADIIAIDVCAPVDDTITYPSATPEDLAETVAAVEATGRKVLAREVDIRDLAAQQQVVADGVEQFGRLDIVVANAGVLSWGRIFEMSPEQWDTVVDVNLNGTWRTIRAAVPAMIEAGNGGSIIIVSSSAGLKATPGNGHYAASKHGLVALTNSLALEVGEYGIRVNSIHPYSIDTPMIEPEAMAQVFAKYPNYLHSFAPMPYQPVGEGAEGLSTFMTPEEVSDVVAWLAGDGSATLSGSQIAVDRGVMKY", "experiment": "UV-vis absorbance of copurified NADH at […] nm", "format": "binding", "settings": "pH 7.0, non-exchangeable, oxidised by PMFT"}},
  "data": [
    {"compound": "CC1(C)C(Cc2ccc(O)cc2)NC(=O)C1N", "note": "(stereo not drawn) [AHDP, 3-amino-5-[(p-hydroxyphenyl)methyl]-4,4-dimethyl-2-pyrrolidinone]", "values": [
      {"measurement": "HPLC of product, aerobic", "setting": "MsMftD", "result": "the HPLC chromatogram for the MsMftD reaction showed similar results to that of MuMftD"}
    ]},
    {"compound": "Cc1cc2nc3c(=O)[nH]c(=O)nc-3n(C[C@H](O)[C@H](O)[C@H](O)COP(=O)(O)O)c2cc1C", "note": "[FMN]", "values": [
      {"measurement": "HPLC of flavin released by heat from purified protein; UV-vis", "setting": "MuMftD (MftD)", "result": "the absorbance features of the cofactor bound to MuMftD originated from FMN"}
    ]},
    {"compound": "NC(=O)C1=CN([C@@H]2O[C@H](COP(=O)(O)OP(=O)(O)OC[C@H]3O[C@@H](n4cnc5c(N)ncnc54)[C@H](O)[C@@H]3O)[C@@H](O)[C@H]2O)C=CC1", "note": "[NADH]", "values": [
      {"measurement": "UV-vis absorbance of copurified NADH at 340 nm", "setting": "[1]", "result": "PMFT is mediating the oxidation of NADH to NAD^+ on MsCDH"}
    ]}
  ]
}
